{
  "source": "paper PMC5668910",
  "about": "(Biochemistry and Biophysics Reports, 2015)",
  "parameters_in_all_cases": "species or system guinea pig",
  "key": {"[1]": {"biological_target": "T1, gpBLT1 His83Gly^2.67/Lys88Gly^3.21 (Cavia porcellus, UniProt H0VYV8, H83G/K88G/S309A)", "T1 sequence (H0VYV8 1-348 H83G/K88G/S309A)": "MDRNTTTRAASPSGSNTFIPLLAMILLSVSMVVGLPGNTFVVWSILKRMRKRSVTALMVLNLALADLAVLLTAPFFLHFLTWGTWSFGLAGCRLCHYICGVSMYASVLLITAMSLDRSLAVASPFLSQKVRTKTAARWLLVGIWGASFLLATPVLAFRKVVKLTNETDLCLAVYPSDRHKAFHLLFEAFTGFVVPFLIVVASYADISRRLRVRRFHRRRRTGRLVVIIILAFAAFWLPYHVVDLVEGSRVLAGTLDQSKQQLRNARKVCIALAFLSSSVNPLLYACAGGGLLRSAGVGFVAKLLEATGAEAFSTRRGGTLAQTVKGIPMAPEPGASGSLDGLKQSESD", "assay": "saturation binding of LTB4, membrane fraction"}, "[2]": {"biological_target": "purified gpBLT1 His83Gly^2.67/Lys88Gly^3.21 (Cavia porcellus, UniProt H0VYV8, H83G/K88G/S309A)", "sequence (H0VYV8 1-348 H83G/K88G/S309A)": "as above", "assay": "competitive ligand binding to purified receptor"}, "[3]": {"biological_target": "T2, original gpBLT1 dN15/Ser309Ala (Cavia porcellus, UniProt H0VYV8, S309A)", "T2 sequence (H0VYV8 16-348 S309A)": "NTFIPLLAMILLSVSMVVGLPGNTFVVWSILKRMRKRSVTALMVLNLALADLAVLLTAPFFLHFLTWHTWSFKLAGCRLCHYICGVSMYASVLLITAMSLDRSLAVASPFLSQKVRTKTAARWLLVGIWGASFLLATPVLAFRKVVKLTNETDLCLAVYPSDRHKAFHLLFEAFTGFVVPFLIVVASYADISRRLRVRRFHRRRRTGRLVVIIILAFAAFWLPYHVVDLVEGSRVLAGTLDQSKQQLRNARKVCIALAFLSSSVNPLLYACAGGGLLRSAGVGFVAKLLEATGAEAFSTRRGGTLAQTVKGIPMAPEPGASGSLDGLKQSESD", "assay": "saturation binding of LTB4, membrane fraction"}, "[4]": {"biological_target": "T2, original gpBLT1 dN15/Ser309Ala", "assay": "competitive ligand binding"}, "[5]": {"biological_target": "T1, gpBLT1 His83Gly^2.67/Lys88Gly^3.21", "assay": "competitive ligand binding"}},
  "data": [
    {"smiles": "CCCCC/C=C\\C[C@@H](O)/C=C/C=C/C=C\\[C@@H](O)CCCC(=O)O", "note": "[LTB4, leukotriene B4]", "values": [
      {"measurement": "Kd", "setting": "[1]", "value": 8.2, "unit": "nM"},
      {"measurement": "IC50", "setting": "[2]", "value": 2.4, "unit": "nM"},
      {"measurement": "Kd", "setting": "[3]", "value": 6.6, "unit": "nM"},
      {"measurement": "Ki", "setting": "[4]", "value": 3.8, "unit": "nM"},
      {"measurement": "Ki", "setting": "[5]", "value": 12.9, "unit": "nM"}
    ]}
  ]
}
